Laboratory results as given in patent US20190262261A1, “RADIATION SENSITIZER OR ANTI-CANCER CHEMOTHERAPY SENSITIZER” (priority 2006, published 2019).

Columns and labels:
[1] = Pain on subcutaneous injection in normal volunteers; assay type: in vivo, human; conditions: 1 ml subcutaneous, pH 6.8, 0.5% hydrogen peroxide
Method: (2) Based on the above results, the following experiment was conducted on five normal volunteers.
When a 27-gage thin needle was used to subcutaneously inject 1 ml of physiological saline (pH 6.8) containing 0.5% hydrogen peroxide into the inside of the left arms of five normal volunteers, all complained of severe pain limited to the injection site that lasted about 1 hour.

[2] = Pain on intratumoral injection into SCCVII tumors of mice; assay type: in vivo, C3H/He mouse; conditions: 1 ml, 27-gage needle, pH 6.8, 0.5% hydrogen peroxide, five mice per group, tumor about 10 mm
Method: (1) Mouse squamous epithelium cancer cells (SCCVII tumor cells) were transplanted into the right leg of the same kind of C3H/He mouse (8-week-old female), and the following experiment was conducted when the tumor had grown to about 10 mm in diameter.
When a 27-gage thin needle was used to intratumorally inject 1 ml of physiological saline (pH 6.8) containing 0.5% hydrogen peroxide into the tumors of five mice, the mice were all observed to feel strong pain, violently resisting the injection.

[3] = tested on: radioresistant osteosarcoma cell lines (HS-Os-1); conditions: 0.1 mM in culture solution, radiation in the order of 10 Gy; cited from earlier work
[4] = tested on: inoperable locally advanced malignant melanoma
Method: For a case of inoperable locally advanced malignant melanoma, sterilized cut cotton soaked in a hydrogen peroxide solution having a concentration of approximately 3 weight percent was used as a bolus, and irradiation by an electron beam from a linear accelerator (radiosensitization therapy) was then conducted.
Specifically, sterilized cut cotton soaked in a hydrogen peroxide solution having a concentration of approximately 3% was applied to the affected area of the locally advanced malignant melanoma as a bolus, and irradiation was conducted three times a week for four weeks, with each radiation dose amounting to 4 Gy (12 times, for a total radiation dosage of 48 Gy).

Question: Which results are given for `OO` [hydrogen peroxide]?
Answer: pain at the injection site ([1]; inside of arm, 27-gage needle, five volunteers): severe pain; duration of pain at the injection site ([1]; left arm): about 1 hour; pain of the intratumoral injection [2]: strong pain; effect on irradiated cells (reactive oxygen species, apoptosis) [3]: giving rise to apoptosis; length of malignant melanoma ([4]; 2 weeks after RT, approximately 3% solution on cut cotton as bolus, 4 Gy x 12, total 48 Gy, approximately 8 cm before radiotherapy): approximately 5 cm; tumor outcome (summary in disclosure) ([4]; approximately 3 weight percent solution as bolus, 4 Gy three times a week, total 48 Gy): disappearance of the tumor; tumor outcome ([4]; three months after termination of radiotherapy, approximately 3% solution as bolus, total 48 Gy): almost disappeared
